{"source": "patent US20030125337A1", "about": "“Inhibitors of multidrug transporters” (priority 1998, published 2003)", "key": {"S. pneumoniae (SPC2A)": {"tested_on": "S. pneumoniae (SPC2A)", "experiment": "Minimal inhibitor concentration decreasing the ciprofloxacin MIC two fold, S. pneumoniae SPC2A", "assay_type": "cell-based", "details": "Streptococcus pneumoniae; SPC2A; minimal concentration required to decrease the MIC for ciprofloxacin by two fold; N.A. = not active at 5 μg/ml; read-out: IC50 S. Pneumoniae"}, "[1]": {"tested_on": "first step mutants of S. pneumoniae (ATCC 49619)", "details": "three first step mutants, non-toxic concentration"}, "B. subtilis": {"tested_on": "B. subtilis", "details": "inhibition of the Bmr transporter; cited from earlier work"}, "NorA [2]": {"biological_target": "T1, NorA (Staphylococcus aureus, UniProt P0A0J7)", "T1 construct": "expressed in transfected cells; host or cells: Bacillus subtilis strain NA", "T1 sequence (P0A0J7 whole entry)": "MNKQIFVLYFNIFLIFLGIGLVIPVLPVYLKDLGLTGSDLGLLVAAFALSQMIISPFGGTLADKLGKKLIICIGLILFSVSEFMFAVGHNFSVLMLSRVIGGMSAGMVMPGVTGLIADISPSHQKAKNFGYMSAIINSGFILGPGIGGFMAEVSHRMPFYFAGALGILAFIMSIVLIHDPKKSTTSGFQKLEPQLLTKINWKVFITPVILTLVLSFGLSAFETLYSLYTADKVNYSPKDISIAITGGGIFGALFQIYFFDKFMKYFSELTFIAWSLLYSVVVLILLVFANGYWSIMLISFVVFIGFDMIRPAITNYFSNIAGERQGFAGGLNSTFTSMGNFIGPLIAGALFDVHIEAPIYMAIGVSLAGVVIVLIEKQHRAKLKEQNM", "details": "cited from earlier work"}, "S. pneumoniae": {"tested_on": "S. pneumoniae", "details": "cited from earlier work"}, "[3]": {"tested_on": "NorA-overexpressing S. aureus, SA1199B", "experiment": "Frequency of emergence of SA1199B mutants insensitive to the NorA inhibitor (adaptation of NorA)", "assay_type": "cell-based", "details": "mutagenized SA1199B, ethidium bromide 10 μg/ml, INF inhibitors 5 μg/ml, reserpine 20 μg/ml, 48 h", "method": "To evaluate the possibility of such mutations arising in the NorA transporter the inventors determined the frequency of emergence of mutants of NorA-overexpressing S. aureus, SA1199B, that retained resistance to a NorA substrate in spite of the presence of a NorA inhibitor. […] After a 48 h incubation period the number of colonies on each plate was determined."}, "S. aureus (SA1199B)": {"tested_on": "S. aureus (SA1199B)", "experiment": "Minimal inhibitor concentration decreasing the ciprofloxacin MIC two fold, S. aureus SA1199B", "assay_type": "cell-based", "details": "Staphylococcus aureus, read-out: Effectivity IC50* S. Aureus"}, "E. faecalis": {"tested_on": "E. faecalis", "details": "cited from earlier work"}, "NorA [4]": {"biological_target": "T1, NorA", "details": "reference for CoMFA predictions; cited from earlier work"}, "NorA [5]": {"biological_target": "T1, NorA", "assay_type": "cell-based", "details": "FIG. 8; reserpine 20 μg/ml, INF 55, 240, 271, 392 5 μg/ml, INF 277 10 μg/ml", "procedure": "Effect of the lead inhibitors on ethidium efflux from NA cells. NA cells were loaded with ethidium in the presence of reserpine and allowed to efflux in the absence of reserpine (A) in the presence of 20 μg/ml reserpine (B), 5 μg/ml of INF 55 (C), 5 μg/ml of INF 240 (D), 5 μg/ml of INF 271 (E), 5 μg/ml of INF 392 (F), or 10 μg/ml of INF 277 (G). Fluorescence intensity is proportional to the amount of ethidium remaining inside the cells.\nNA cells overexpressing NorA were loaded with ethidium bromide in the presence of reserpine (20 μg/ml). After washing, cells were placed in a fluorimeter cuvette with fresh medium."}, "Bmr": {"biological_target": "Bmr (Bacillus subtilis, UniProt P33449)", "sequence (P33449 whole entry)": "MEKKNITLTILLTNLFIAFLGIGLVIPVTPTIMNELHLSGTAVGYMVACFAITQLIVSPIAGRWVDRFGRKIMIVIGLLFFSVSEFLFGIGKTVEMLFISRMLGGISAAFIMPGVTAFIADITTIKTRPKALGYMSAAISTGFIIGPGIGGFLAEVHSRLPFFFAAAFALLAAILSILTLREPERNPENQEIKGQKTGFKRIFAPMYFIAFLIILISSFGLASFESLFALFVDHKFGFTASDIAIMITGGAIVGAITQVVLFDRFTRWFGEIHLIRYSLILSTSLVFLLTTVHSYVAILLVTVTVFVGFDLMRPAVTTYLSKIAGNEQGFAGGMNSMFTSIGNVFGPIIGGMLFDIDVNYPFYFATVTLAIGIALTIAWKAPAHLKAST", "details": "cited from earlier work"}, "wild-type S. aureus": {"tested_on": "wild-type S. aureus", "details": "cited from earlier work"}, "[6]": {"tested_on": "wild type S. aureus SA1199", "assay_type": "cell-based", "details": "INF inhibitors 5 μg/ml, reserpine 20 μg/ml; for Fold inhibition of emergence of resistance: ciprofloxacin resistance, SA1199", "method": "The effect of the inhibitors on the rate of emergence of in vitro selected single-step ciprofloxacin resistant mutants of wild type S. aureus SA1199 (Kaatz et al., 1990) was determined.\nCiprofloxacin resistance in first step in vitro selected mutants of S. aureus is predominantly due to specific point mutations in the targets of this drug, topoisomerase IV and gyrase (Cambau and Gutman, 1993; Ferrero et al., 1994)."}, "[7]": {"details": "S. pneumoniae strain EBR, non-toxic concentrations"}}, "note": "Read-outs that look alike come from different tables or passages of the source.", "data": [{"smiles": "COC(=O)[C@H]1[C@H]2C[C@@H]3c4[nH]c5cc(OC)ccc5c4CCN3C[C@H]2C[C@@H](OC(=O)c2cc(OC)c(OC)c(OC)c2)[C@@H]1OC", "note": "[Reserpine, reserpine]", "values": [{"measurement": "IC50", "setting": "S. pneumoniae (SPC2A)", "value": 5, "unit": "µg/mL"}, {"measurement": "reversal of resistance to ciprofloxacin and ethidium bromide", "setting": "[1]", "value": "reversed the resistance"}, {"measurement": "reduction of the MIC of norfloxacin", "setting": "B. subtilis", "value": "by a factor of five"}, {"measurement": "inhibition of drug efflux mediated by NorA", "setting": "NorA [2]", "value": "completely inhibited"}, {"measurement": "inhibition of ethidium efflux", "setting": "S. pneumoniae; [7]", "value": "inhibited ethidium efflux"}, {"measurement": "reversal of resistance to ethidium and fluoroquinolones", "setting": "S. pneumoniae; [7]", "value": "reversed the resistance"}, {"measurement": "potentiation of susceptibility to ethidium and fluoroquinolones", "setting": "S. pneumoniae; wild type S. pneumoniae", "value": "two to three fold"}, {"measurement": "factor of reduction of the MIC of norfloxacin and ciprofloxacin", "setting": "S. pneumoniae; wild-type S. pneumoniae", "value": "2-3"}, {"measurement": "Frequency of adaptation of NorA (mutants insensitive to the inhibitor)", "setting": "[3]", "value": "approximately 2×10^−8"}, {"measurement": "IC50", "setting": "S. aureus (SA1199B)", "value": 6.25, "unit": "µg/mL"}, {"measurement": "increase in susceptibility to fluoroquinolones", "setting": "E. faecalis", "value": "two-fold increase"}, {"measurement": "concentration at which known to be active", "setting": "NorA [4]", "value": 5, "unit": "µg/mL"}, {"measurement": "inhibition of the decrease in fluorescence due to NorA-mediated ethidium efflux", "setting": "NorA [5]", "value": "dramatically inhibited"}, {"measurement": "inhibition of drug efflux mediated by Bmr", "setting": "Bmr", "value": "completely inhibited"}, {"measurement": "reduction of the MIC of norfloxacin", "setting": "wild-type S. aureus", "value": "at least four-fold"}, {"measurement": "Frequency of emergence of variants resistant to two fold the MIC of ciprofloxacin, Spontaneous", "setting": "[6]; SA1199, ciprofloxacin 1 μg/ml, 48 h", "value": "<5 × 10^−11"}, {"measurement": "Frequency of emergence of variants resistant to two fold the MIC of ciprofloxacin, Mutagenized", "setting": "[6]; SA1199 mutagenized with ethylmethane sulfonate", "value": "<2.5 × 10^−10"}, {"measurement": "Fold inhibition of emergence of resistance", "setting": "[6]", "value": ">50"}, {"measurement": "Fold inhibition of emergence of resistance", "setting": "[6]; listed as reserpine", "value": "more than one order of magnitude"}]}]}
